For one data set, the system named is nuclear localization. Particulars: literature; cited from earlier work.
The subject of a further data set is mice. Briefly: Toxicity study: median lethal dose in mice, i.p. The format is in vivo. The protocol: (§1) The doses of compounds of the invention found to be lethal to 50% of the mice (LD50) were determined by intraperitoneal injection of groups of five animals with increasing doses of each compound. CNI-0294 was administered from 0, 2, 10, 20, 40, 80, 160, 320, 640, 1280 mg/kg in 0.5 ml of water/HCl; CNI-1594 at 0, 2.4, 5, 10, 20, 40, 80 mg/kg in 0.5 ml of water/HCl; CNI-1794 at 0, 20, 50, 80 mg/kg in 0.5 ml of water/HCl; and CNI-1894 at 0, 10, 20, 40, 80, 240, 480, 960 mg/kg in water/HCl. […] The percentage of animals in each group which died were utilized to calculate the LD50 by non-linear curve fitting with the Enzfit software (Elsevier Bioscience; Cambridge, UK) programmed with the Chou equation (Chou 1976, J Theor Biol 39:253-276)).
(§2) The compounds (FIGS. 4A-E), were screened for toxicity via a modified LD50 assay procedure as described above in an outbred strain of mice.

Data set [1] in a line: Toxicity study: median lethal dose in mice, i.p. The format is in vivo. To be noted: mouse, in vivo, ip. The protocol: as §1, §2
The next data set can be described thus: in vitro. The format is in vitro ADME, mouse (ND4 Swiss Webster). How it is done:
Several female ND4 Swiss Webster mice were euthanized by carbon dioxide inhalation and the livers excised and rinsed with ice cold phosphate buffered saline (pH 7.4). The livers were minced, gently homogenized in 50 mM phosphate buffer (pH 7.4) with a Dounce homogenizer, and centrifuged at 9600×g for 20 min. The post-mitochondrial supernatant was kept, glycerol added to 20%, and frozen at -70° C. in 1.0 ml aliquots until used. For each incubation, 1.0 ml of a 1.0 mg/ml drug solution was added to 3.0 ml of 50 mM phosphate buffer (pH 7.4), 1.0 ml of 2 mg/ml NADPH in 50 mM phosphate (pH 7.4), and 1.0 ml of the post-mitochondrial supernatant. Five hundred μl of each incubate was then immediately transferred to an ice-cold tube to provide the zero-time sample, and addition 500 μl aliquots removed to ice-cold tubes at 8, 15, 30, and 60 min. The samples were then extracted, and analyzed by HPLC as described in section 7.1. Control incubations were also performed where drug or post-mitochondrial supernatant was omitted. […] Peaks in the CNI compound incubations which increased over time, and were not present in control samples lacking the enzyme preparation were treated as putative metabolites.

Data set [2] deals with Plasmodium falciparum clone HB3. Description: Antimalarial activity in vitro, hypoxanthine incorporation, clone HB3. The format is cell-based. To be noted: HB3, read-out: CNI-0294 IC50. How it is done: (§3) The antimalarial activity of the compounds was determined essentially as described in Desjardins et al. supra. Fifty Al of various concentrations of a compound of the invention, chloroquine, or pyrimethamine were added to the wells of microtiter plates, followed by 200 Al of ring-stage, synchronized, P. falciparum-infected erythrocytes (final hematocrit=1.5%, final parasitemia=1-5%). The plates were incubated for 24 hr in a candle jar kept at 37° C., and then 25 μl of [^3 H]-hypoxanthine (Amersham, Arlington Heights, Ill.; 2.5 μl Ci/well) was added. The plates were then incubated for a further 24 hr, before harvesting onto Unifilter-96 GF/C filter-microplates (Packard; Meriden, Conn.). Twenty-five μl of Microscint scintillation fluid (Packard) was added to each well of the filter-microplate, which was subsequently counted in a Top-count microplate scintillation counter (Packard). The percent of [^3 H] -hypoxanthine uptake relative to control infect-erythrocytes was used to determine the IC50 value for the compounds by non-linear regression for LD50 determination.

Another data set deals with Plasmodium falciparum. Briefly: Antimalarial activity in vitro, hypoxanthine incorporation, series of clones. The format is cell-based. How it is done:
as §3

Data set [3] has as its system Plasmodium falciparum clone W2mef. Description: Antimalarial activity in vitro, hypoxanthine incorporation, clone W2mef. The format is cell-based. Particulars: read-out: CNI-0294 IC50. How it is done:
as §3

For data set [4] the following is noted: mouse, in vivo.
Protocol: (§4) Standard addition curves for each test compound were constructed by adding increased amounts of drug to mouse or human A^+ plasma (Long Island Blood Services; Melville, N.Y.). […] The eluted sample was reduced to dryness in a rotary evaporator and resuspended in 1.0 ml Buffer A.
(§5) Female ND4 Swiss Webster mice (21-24 g) were obtained from Harlan Sprague Dawley (Indianapolis, Ind.) and randomly placed in groups of five in cages with free access to food and water. […] The other CNI compounds were administered intraperitoneally or by oral gavage as a solution in water titrated with sufficient HCl to dissolve the drug. At various time points, ranging from 5 min to 4 days, a single group of animals was euthanized by carbon dioxide inhalation and bled by cardiac puncture using heparin as an anticoagulant. The blood from the five mice in the group was pooled and centrifuged at 14000×g for 10 min. The volume of plasma was measured, and equal volume of Buffer A added, and the mixture extracted and analyzed as described above, except that the dried eluates were resuspended in 200 μl Buffer A and 100 μl was injected onto the high performance liquid chromatography (HPLC) system.
(§6) The area under the plasma concentration-time curve (AUC) was determined, and bioavailability was measured as AUCoral /AUCi.p.. […] The volume of distribution (VD) was calculated as dose/B, and the total clearance rate (Cltot) calculated as β*VD. Cmax and tmax are the maximal plasma concentration and time of this measurement, respectively.
The nature of the next data set: in vivo. To be noted: mouse, plasma, 50 mg/kg.
The subject of data set [5] is Plasmodium falciparum clone D10. Description: Antimalarial activity in vitro, hypoxanthine incorporation, clone D10. The format is cell-based. To be noted: D10, read-out: CNI-0294 IC50. How it is done:
as §3

In data set [6] the test system is Plasmodium falciparum clone Dd2. Description: Antimalarial activity in vitro, hypoxanthine incorporation, clone Dd2. The format is cell-based. Particulars: Plasmodium falciparum. How it is done: as §3
The Dd2 clone of P. falciparum, which was both chloroquine and pyrimethamine resistant, was utilized to compare the antimalarial activity of the remaining CNI compounds (Table VIII).

Data set [7] relates to Plasmodium falciparum clone FCR-3. Description: Antimalarial activity in vitro, hypoxanthine incorporation, clone FCR-3. Particulars: FCR3, read-out: CNI-0294 IC50. The format is cell-based. How it is done:
as §3

A further data set concerns Plasmodium berghei. Briefly: Four day suppression test in Plasmodium berghei infected mice. The format is in vivo, Plasmodium berghei NYU-2 in female ND4 Swiss Webster mice. The protocol:
FIG. 9. The activity of CNI-0294 against Plasmodium berghei infected mice. Female ND4 Swiss Webster mice were infected with infected erythrocytes and then treated once daily, for four days, with 50 mg/kg CNI-0294, or with distilled water. Six hours after the last dose, thin blood smears were made from each of the animals and the parasitemia was determined. The bars represent the median parasitemia (n=4 for controls and n=5 for treated).
The antimalarial activity of CNI-0294 in vivo was assessed by infecting female ND4 Swiss Webster mice with 100 μl of Plasmodium berghei NYU-2 infected mouse erythrocytes (50% parasitemia) by intraperitoneal injection. The animals were subsequently injected intraperitoneally once per day on days 1-4 of the infection with 0.5 ml water or 0.5 ml of 50 mg/kg CNI-0294 in water. Four hours after the final injection, small blood samples were taken from the tail, and thin smears stained with Dif-Quick (Baxter, Miami, Fla.). The parasitemia of control and treated animals was enumerated by inspection of at least 1000 erythrocytes in each animal.

Data set [8] has as its system importation of HIV-1 into the nucleus. To be noted: 0.1M peptide in medium; aphidicolin-arrested CD4+ MT4 cells; cited from earlier work.

“And” between values parts separate entries of the source, which are not always exact repeats. Equal entries are not always repeated. “Also recorded” adds a separate entry of the source. Where two headings read alike, the source gives them in different places.

Protocol for in vivo: as §4, §5, §6

Turning to `Nc1nc2c(ncn2[C@@H]2O[C@H](COP(=O)(O)OP(=O)(O)OP(O)(O)=S)[C@@H](O)[C@H]2O)c(=O)[nH]1` [(γ-S)GTP], the “inhibition of nuclear localization” value in the data set with nuclear localization is “blocked”.

The LD50 is the dose expected to kill half of the subjects tested. Read a high LD50 as lower toxicity. What is called CL/F is the apparent clearance, not corrected for the fraction that reaches the circulation. Usually Cmax stands for the maximum level reached in the sampled fluid or tissue. Broadly, the Vd/F is the apparent distribution volume after extravascular dosing. Regarding `CC(=O)c1cc(Nc2cc(C)[n+](C)c(N)n2)cc(C(C)=O)c1.[Cl-]` [CNI-0294, 2-amino-4-(3,5-diacetylphenyl)amino-1,6-dimethylpyrimidinium chloride], in the data set on mice, the “signs and time of toxic reactions / death” value is recorded as “no overt signs of toxicity detectable at doses approaching the LD50”; the tolerability result was “very well tolerated; also recorded: well tolerated”. In data set [1], this compound displayed an LD50 of 588 ± 65.8 mg/kg. For the same compound, the number of metabolites result in “in vitro” (mouse liver post-mitochondrial supernatant, NADPH) was “three minor and one major metabolite”. Also, in the data set “in vitro” (mouse, liver post-mitochondrial supernatant, 60 min incubation, by peak area, read-out: drug altered (metabolic conversion)), the metabolised at 1 h was 43.5%. The IC50 in data set [2] amounted to 1.79 ± 0.27 µM. In the data set on Plasmodium falciparum, the “anti-malarial activity in vitro” value was “considerable anti-malarial activity; also recorded: effective against various clones of P. falciparum”. Also, the IC50 in the data set with Plasmodium falciparum (Plasmodium falciparum, series of cloned parasites, read-out: median inhibitory concentration (IC50)) fell in the range of 1.79 to 4 µM. Also, in data set [3], the IC50 was 2.29 ± 0.22 µM. In data set [4], this compound displayed a relative bioavailability of 6%. In data set [4] (50 mg/kg), this compound had a relative bioavailability of 6%. Also, in [4] (ip, 50 mg/kg), the “A (zero time intercept, distribution phase)” value was 14.00 and 16.07; the “B (zero time intercept, elimination phase)” value is 0.07 and 0.05; the Cltot is 62.70; the VD was 19.80. Also, in data set [4] (ip, 50 mg/kg), the “duration of therapeutic plasma concentration (range of P. falciparum IC50)” value is on record as “approximately one”; the plasma maximal concentration is 18.76 to 18.93 µg/mL; the t1/2α was 0.62 and 0.40; the t1/2β is 4.62 and 3.65. Moreover, in data set [4] (ip, 50 mg/kg), the tmax is 5; the α is 1.12 and 1.74; the β is given as 0.19. Further, in data set [4] (po, 50 mg/kg), the Bioavaliability turned out to be 0.06 and the “time drug was detectable in plasma” value was “at least 6 hr”. In the data set “in vivo” (ip), this compound gave a CL/F of 35.4 mL/min, a Cmax of 18800 ng/mL, a Vd/F of 14.1 L and a k el of 4.17e-05 s⁻¹. The peak level in the data set “in vivo” (po) (Cmax) was 400 ng/mL. In addition, the IC50 in data set [5] was found to be 4 ± 0.41 µM. Besides, the IC50 in [6] (DD2, read-out: CNI-0294 IC50) turned out to be 3.52 ± 0.1 µM. Besides, in data set [6] (DD2, read-out: IC50 ± standard deviation), the IC50 turned out to be 3.67 ± 0.57 µM. In addition, the IC50 in data set [7] worked out at 3.09 ± 0.3 µM. For the same compound, the “suppression / cure of P. berghei infection” value with Plasmodium berghei (50 mg/kg i.p. daily for 4 days) was “strongly suppress P. berghei infection in mice; also recorded: not completely cured”. Further, the reduction of parasitemia with Plasmodium berghei (50 mg/kg i.p. once daily for four days, P≤0.01) is reported as 10 fold.

“SV40 T-antigen NLS: the peptide having the sequence of the SV40 T-antigen NLS (PKKKRKV)”: the “block of HIV-1 importation into the nucleus” value in data set [8] is “blocked the importation of HIV-1 into the nucleus”.

The values are drawn from patent publication US5840893A, “Compounds for treating infectious diseases” (priority 1996, dated 1998).
